# From patent US8603531B2, “Nanometer-sized prodrugs of NSAIDs” (Cedars-Sinai Medical Center, priority 2008, dated 2013)
# Experiments:
# [1] = Hydrodynamic size and size distribution of nanoprodrugs by dynamic light scattering; format: physicochemical
# Description: Briefly, 25 mg of the compounds were dissolved in acetone (5 ml) containing polysorbate 80 (0.1% w/v). […] Following 15 min of magnetic stirring, the acetone was removed under reduced pressure at room temperature.
# The hydrodynamic size measurement and size distribution of the nanoprodrugs were performed by the dynamic light scattering (DLS) using a Coulter N4-Plus Submicron Particle Sizer (Coulter Corporation, Miami, Fla., USA). The nanoprodrugs were diluted in deionized water and the analysis was performed at a scattering angle of 90° and at a temperature of 25° C. Three separate preparations were analyzed for each nanoprodrug. For each preparation mean diameter and mean polydispersity index (P.I.) of three determinations were calculated. The mean diameter±standard deviation (S.D.) and P.I.±S.D. were calculated from the three mean diameters and mean P.I.'s of the three separate preparations.
# Esterase (porcine liver) = assay: Enzymatic destabilization / hydrolysis of nanoprodrugs by esterase; format: in vitro ADME; conditions: esterase 5 U/ml; for Parent drugs hydrolyzed / released from the nanoprodrugs after 1 h incubation / Concentration of the released drugs / Drug release: nanoprodrug 500 μM; for Concentration of the released drugs / Drug release: 60 min, room temperature, PBS pH 7.4; for Concentrations of the released drugs after 12 h incubation: compared with ALA-TEG-Npx and ALA-TEG-Ibu after 1 h
# Description: Esterase (porcine liver, Sigma, code E3019) was added to the final concentration of 5 U/ml. For the nanoprodrugs from the three bifunctional prodrugs, ALA-TEG-Ibu, ALA-TEG-Npx and ALA-TEG-Ind, the reduction in turbidity was monitored using ultraviolet/visible spectrometer (Bio-Rad SmartSpec™ 3000) for 60 min at room temperature with a wavelength λ=500 nm and 1 min acquisition interval. For the nanoprodrugs from the three dimeric prodrugs, Ibu2TEG, Npx2TEG and Ind2TEG, the samples were taken during the incubation for 12 h at room temperature with appropriate time interval and the reduction in turbidity was measured.
# To determine the amount of enzymatically hydrolyzed NSAIDs, samples were centrifuged for 10 min at 20,000×g and the supernatants were analyzed by RP-HPLC using a C18 reversed phase column (Section 2.5).
# The concentration of the NSAIDs was determined using calibration curves generated in the concentration range of 25-500 μM. Error bar represents±S.D. calculated from triplicate determinations. The stability of the nanoprodrugs under the experimental conditions in the absence of esterase was evaluated as follows. The purified nanoprodrugs were suspended in PBS (pH 7.4) and incubated for 12 h at room temperature. The amount of the intact prodrugs was determined using RP-HPLC as described above.
# esterase [2] = assay: Recovery of NSAIDs from oxidized nanoprodrugs (esterase hydrolysis); format: in vitro ADME, porcine; conditions: 250 μM, HOCl 500 μM 2 min, esterase 2 U/ml, overnight 37° C.
# Description: The recovery yield of NSAIDs was determined for oxidized and non-oxidized nanoprodrugs. The nanoprodrugs prepared from ALA-TEG-Ibu, ALA-TEG-Npx and ALA-TEG-Ind (250 μM in PBS, pH 7.4) were incubated in the presence and absence of HOCl (500 μM) for 2 min. Esterase (2 U/ml) was added and mixed by pipetting up and down. In order to determine the total amount of available NSAIDs from the oxidized and non-oxidized nanoprodrugs, the hydrolysis was carried out overnight at 37° C. The reaction mixture was centrifuged for 10 min at 20,000×g and the hydrolyzed NSAIDs in the supernatant were quantified using RP-HPLC. Error bar represents±S.D. calculated from triplicate determinations.
# esterase [3] = assay: Effect of nanoprodrug oxidation on the rate of enzymatic hydrolysis; format: in vitro ADME, porcine; conditions: determined immediately after addition of esterase 2 U/ml; HOCl 500 μM 2 min
# Description: In order to evaluate the effect of prodrug oxidation on the rate of enzymatic hydrolysis, the initial hydrolysis rate of NSAIDs from the oxidized and non-oxidized nanoprodrugs was determined. The nanoprodrugs prepared from ALA-TEG-Ibu, ALA-TEG-Npx and ALA-TEG-Ind (250 μM in PBS, pH 7.4) were incubated in the absence and presence of HOCl (500 μM) for 2 min. Esterase (2 U/ml) was added and mixed by pipetting up and down. The reaction mixture was centrifuged immediately after addition of esterase and the supernatant was quickly transferred into a new tube and incubated further to complete hydrolysis. The hydrolyzed NSAIDs in the supernatant were quantified using RP-HPLC as described above. Error bar represents±S.D. calculated from triplicate determinations.
# To evaluate the sequence of hydrolysis after oxidation, the nanoprodrugs were incubated in presence of HOCl (500 μM) for 2 min and esterase (2 U/ml) was added. The reaction mixture was mixed by pipetting up and down and immediately centrifuged for 10 min at 20,000×g. The supernatant was analyzed using RP-HPLC as described above.
# [4] = Oxidative destabilization of nanoprodrugs (turbidity at 500 nm after HOCl); conditions: nanoprodrug 250 μM, HOCl 25-1000 μM
# Description: The nanoprodrugs were purified by centrifuging three times at 20,000×g for 10 min at 25° C. and resuspending each time in the same volume of deionized water. The purified nanoprodrugs were resuspended in phosphate buffered saline (PBS, pH 7.4) to give the final concentration of 250 μM NSAID derivatives. The concentration of HOCl in the diluted commercial sodium hypochlorite solution was determined spectrophotometrically (ε292=350 M^−1 cm^−1) (Morris, 1966). HOCl was added to the suspension of nanoprodrugs to give the final concentration of 25-1000 μM and the reduction in turbidity was measured immediately using ultraviolet/visible spectrometer (Bio-Rad SmartSpec™ 3000, Hercules, Calif., USA) at room temperature with a wavelength λ=500 nm.
# [5] = tested on: U87-MG human glioma cell line; conditions: nanoprodrug 10 to 100 μM, 3 days
# Description: The cells were grown and maintained in Minimum Essential Medium (MEM) (Invitrogen) containing antibiotics 100 U/mL penicillin (Invitrogen) and 100 μg/mL streptomycin (Invitrogen), and supplemented with 10% fetal bovine serum (FBS) (Invitrogen). Cells were kept at 37° C. in a humidified atmosphere including 5% CO2.
# Nanoprodrugs were prepared from the monomeric derivative Ibu2TEG (25 mg) as described in Example 6 and dialyzed in phosphate buffered saline (PBS) over night. The human glioma cells (U87-MG) were seeded in a 25 cm^2 flask at 2.5×10^5 cells/5 mL and allowed to grow for 24 h. The medium was changed and the cells were treated with nanoprodrugs at final concentration ranging from 10 to 100 μM for the monomeric derivative Ibu2TEG. After a 3-day treatment, the medium was remove, cells were washed with PBS and 1 mL of 0.25% trypsin/EDTA (Gibco) was added to detach the cells. […] Control culture was treated with PBS.
# [6] = tested on: human glioma cells (U87-MG); assay: WST-1 cell viability assay, glioma cells; format: cell-based; conditions: free ibuprofen up to 600 μM, 72 h
# Description: Growth inhibition was evaluated by the WST-1 (water-soluble tetrazolium salt) colorimetric assay (Boehringer Mannheim) according to the manufacturer's instructions. […] Cells were incubated at 37° C. for 1-4 h, and the absorbance was read by an ELISA plate reader at 450 nm. The cell viability was calculated as follows: Cell viability (%)=(Abss/Absc)×100, where Abss is the absorbance of cells treated with drugs and Absc is the absorbance of control cells incubated with cell culture medium only (See FIG. 9.).
# [7] = tested on: human glioma cells (U87-MG); assay: Cell death by propidium iodide uptake; format: cell-based; conditions: 200 μM of ibuprofen in DMSO, 72 h
# Description: The human glioma cells (U87-MG) were seeded at 1×10^5 cells per well in 6-well plates, and allowed to grow for 24 h. The medium was changed and the cells were treated with 50 or 100 μM of nanoprodrug of Ibu2TEG or 200 μM of ibuprofen dissolved in DMSO for 72 h. Control cultures were treated with DMSO or cell culture medium only. After the end of treatment, glioma cells were incubated with 5 μM of propidium iodide (Sigma) for 1 h. Propidium iodide fluorescence was excited at 515-560 nm using an inverted microscope fitted with a standard rhodamine filter.
# [8] = another NSAID nanosphere, Table 2C
# [9] = hydrodynamic size of additional nanospheres, Table 2B
# [10] = polydispersity index of additional nanospheres, Table 2B
# [11] = nanoprodrugs of the derivative, Table 2A, n = 3, ±S.D., DLS 25° C.
# [12] = polydispersity index of nanoprodrugs, Table 2A, n = 3, ±S.D.
Structure (SMILES),"Size (nm) [1, 9] [nm]","P.I. [1, 10]","Size (nm) [1, 11] [nm]","P.I. [1, 12]",other results
"O=C(OCCOCCOCCOCCOC(=O)c1ccccc1Nc1cccc(C(F)(F)F)c1)c1ccccc1Nc1cccc(C(F)(F)F)c1 [(FA)2TEG, Tetraethylene glycol(flufenamic acid)2]",–,–,–,–,"P.I. [1, 8]: 0.11; Size (nm) [1, 8]: 118 ± 32 nm"
"COc1ccc2c(c1)c(CC(=O)OCCOCCOC(=O)CCCCC1CCSS1)c(C)n2C(=O)c1ccc(Cl)cc1 (stereo not drawn) [ALA-DEG-IND, (α-Lipoic acid)-diethylene glycol(indomethacin)]",187 ± 54,0.13,–,–,–
"CC(C)Cc1ccc(C(C)C(=O)OCCOCCOC(=O)CCCCC2CCSS2)cc1 (stereo not drawn) [ALA-DEG-Ibu, (α-Lipoic acid)-diethylene glycol(ibuprofen)]",210 ± 53,0.09,–,–,–
"COc1ccc2cc([C@H](C)C(=O)OCCOCCOC(=O)CCCCC3CCSS3)ccc2c1 (stereo partly drawn) [ALA-DEG-Npx, (α-Lipoic acid)-diethylene glycol(naproxen)]",274 ± 56,0.05,–,–,–
"O=C(CCCCC1CCSS1)OCCOCCOCCOCCOC(=O)c1ccccc1Nc1cccc(C(F)(F)F)c1 (stereo not drawn) [ALA-TEG-FA, (α-Lipoic acid)-tetraethylene glycol(flufenamic acid)]",149 ± 36,0.08,–,–,–
CC(C)Cc1ccc(C(C)C(=O)OCCOCCOCCOCCOC(=O)CCCCC2CCSS2)cc1 (stereo not drawn) [ALA-TEG-Ibu],–,–,251 ± 13,0.10 ± 0.03,Parent drugs hydrolyzed / released from the nanoprodrugs after 1 h incubation (Esterase (porcine liver)): approximately 90%; Concentration of the released drugs (Esterase (porcine liver)): 417 µM; Drug release (Esterase (porcine liver)): 83%; Released parent drugs from the oxidized nanoprodrugs in comparison with non-oxidized controls (esterase [2]): 80%; Increase of the amount of hydrolyzed drugs from oxidized vs non-oxidized nanoprodrugs (esterase [3]): approximately two
COc1ccc2c(c1)c(CC(=O)OCCOCCOCCOCCOC(=O)CCCCC1CCSS1)c(C)n2C(=O)c1ccc(Cl)cc1 (stereo not drawn) [ALA-TEG-Ind],–,–,253 ± 25,0.09 ± 0.05,Induction phase of oxidative destabilization [4]: longest induction phase
COc1ccc2cc([C@H](C)C(=O)OCCOCCOCCOCCOC(=O)CCCCC3CCSS3)ccc2c1 (stereo partly drawn) [ALA-TEG-Npx],–,–,298 ± 6,0.05 ± 0.01,Induction phase of oxidative destabilization [4]: less apparent; Parent drugs hydrolyzed / released from the nanoprodrugs after 1 h incubation (Esterase (porcine liver)): approximately 90%; Concentration of the released drugs (Esterase (porcine liver)): 454 µM; Drug release (Esterase (porcine liver)): 91%; Released parent drugs from the oxidized nanoprodrugs in comparison with non-oxidized controls (esterase [2]): 87%; Increase of the amount of hydrolyzed drugs from oxidized vs non-oxidized nanoprodrugs (esterase [3]): three
"CC(C)Cc1ccc(C(C)C(=O)OCCOCCOCCOCCOC(=O)C(C)c2ccc(CC(C)C)cc2)cc1 (stereo not drawn) [Ibu2TEG, Tetraethylene glycol(ibuprofen)2]",–,–,186 ± 11,0.13 ± 0.02,Concentrations of the released drugs after 12 h incubation (Esterase (porcine liver)): comparable; Cell number compared to the control culture [5]: significant decrease in cell number
COc1ccc2c(c1)c(CC(=O)OCCOCCOCCOCCOC(=O)Cc1c(C)n(C(=O)c3ccc(Cl)cc3)c3ccc(OC)cc13)c(C)n2C(=O)c1ccc(Cl)cc1 [Ind2TEG],–,–,159 ± 10,0.06 ± 0.03,–
COc1ccc2cc(C(C)C(=O)OCCOCCOCCOCCOC(=O)C(C)c3ccc4cc(OC)ccc4c3)ccc2c1 (stereo not drawn) [Npx2TEG],–,–,259 ± 9,0.06 ± 0.02,Concentrations of the released drugs after 12 h incubation (Esterase (porcine liver)): comparable
CC(C)Cc1ccc(C(C)C(=O)O)cc1 (stereo not drawn) [ibuprofen],–,–,–,–,Effect on cell viability [6]: did not show any significant effect; Propidium iodide incorporation (cell death) [7]: no significant propidium iodide incorporation
